Reference: patent publication US20260375094A1, “Disinfectant Compositions” (ARXADA, LLC, priority 2022, published 2026)

Legend:
Assay type in all cases: cell-based
Staphylococcus aureus = assay: glass slide carrier spray disinfection test, Staphylococcus aureus; conditions: 75 ppm antimicrobial agent, no polyethertriamine; 10 minutes contact time
Method: (§1) In this example, Pseudomonas aeruginosa or Staphylococcus aureus were dried on glass slides and then sprayed with disinfectant compositions prepared according to the present disclosure. The organism load on the slide was controlled between 5 and 6 log 10 (equals to 10^5 to 10^6 organisms). The spray bottle containing the disinfectant was placed 4 inches away from the carrier and five sprays were applied. After 10 minutes contact time, the carriers are aseptically transferred to 20 ml of letheen broth (neutralizer/growth media). These letheen broth tubes with the carriers are then incubated at 37±1 °C for 48 hours. After 48 hours, a cloudy letheen tube indicates growth or failure and a clear tube indicates no growth or pass.
(§2) The polyethertriamine used was JEFFAMINE T403 polyetheramine obtained from Huntsman Corporation of Houston, Texas.
(§3) In the example below, the alkyl dimethyl benzyl ammonium chloride contained a mixture of 50% by weight C14, 10% by weight C16, and 40% by weight C12 dimethyl benzyl ammonium chloride.
(§4) In the table below, PHMB stands for polyhexamethylene biguanide.

Pseudomonas aeruginosa [1] = assay: glass slide carrier spray disinfection test, Pseudomonas aeruginosa; conditions: 75 ppm antimicrobial agent, no polyethertriamine; 10 minutes contact time
Method: as §1, §2, §3, §4

Klebsiella pneumoniae = assay: modified EN 1040 suspension test, Klebsiella pneumoniae; conditions: 1.25 ppm antimicrobial agent, 60 seconds
Description: (§5) In particular, various antimicrobial agents and mixtures were combined and tested with and without the adjuvant of the present disclosure.
(§6) In this example, the same polyethertriamine described in Example No. 1 was used. In addition, the alkyl dimethyl benzyl ammonium chloride was the same mix as described in Example No. 1. The alkyl dimethyl ammonium chloride mix used in the samples below contained 40% by weight of octyl decyl dimethyl ammonium chloride, 16% by weight dioctyl dimethyl ammonium chloride, and 24% by weight of didecyl dimethyl ammonium chloride.
(§7) The modified EN 1040 suspension test was used to determine the efficacy of the test systems. The testing was performed for a contact time of 60 seconds in comparison to an identical composition not containing the adjuvant but containing the antimicrobial agent at the same concentration. Bacteria were stored at −80 °C using Microbank™ beads (Prolab diagnostics). Cultures were prepared in 250 mL baffled shake flasks with 25 mL of Tryptic Soy Broth (TSB) using one bead. After 18+/−8 hours incubation at 37 °C and 150 rpm, the inocula are prepared for the test.
(§8) The inocula were prepared by diluting the bacteria to 2.5×10^6 CFU/mL in phosphate buffered saline (PBS). Test compounds are prepared in DI water. Three levels of each test compound were prepared by serial two-fold dilution in the same hardwater. For each biological repetition, the test compounds were tested at 3 levels in quadruplicate with one quadruplicate control with no test compound.
The varying compositions were then mixed with the inocula in an 80:20 (test composition: inocula) ratio. After 60 seconds, the test composition/inocula mixture was neutralized by a 10-fold dilution in Letheen broth. […]
(§9) The average log reduction was calculated using the six dilutions.
Various different formulations were tested against Klebsiella pneumoniae and Pseudomonas aeruginosa. […] The average log reduction was recorded in addition to the difference in log reduction between the formulation containing the polyethertriamine and the formulation not containing the polyethertriamine.

Pseudomonas aeruginosa [2] = assay: modified EN 1040 suspension test, Pseudomonas aeruginosa; conditions: 1.25 ppm antimicrobial agent, 60 seconds
Description: as §5, §6, §7, §8
The varying compositions were then mixed with the inocula in an 80:20 (test composition: inocula) ratio. After 60 seconds, the test composition/inocula mixture was neutralized by a 10-fold dilution in Letheen broth. After neutralization of the test composition/inocula mixture, five more 10-fold dilutions were made. The six dilutions were incubated at 35 °C for 24 h+/−1 h. Neutralization was verified separately.
as §9
Various different formulations were tested against Klebsiella pneumoniae and Pseudomonas aeruginosa. The antimicrobial concentrations were tested at 5 ppm, 2.5 ppm, and 1.25 ppm. The antimicrobial blends were mixed at the indicated ratios by weight percent. The formulations were tested with and without the polyethertriamine (PEA). The polyethertriamine was added at weight ratios of 20:1, 40:1, 80:1, and 200:1 with respect to the antimicrobial agent(s). The average log reduction was recorded in addition to the difference in log reduction between the formulation containing the polyethertriamine and the formulation not containing the polyethertriamine.

[3] = tested on: Pseudomonas aeruginosa (ATCC 15442); assay: EN1276 suspension test, dirty condition, 5 minutes; conditions: for Log Reduction: no polyethertriamine, with 5.00 disodium cocoamphodiproprionate, 15.00 isopropyl alcohol, 5 minutes
Method: In particular, varying amounts of para-chloro-metal-xylenol (PCMX) were combined and tested with and without different adjuvants of the present disclosure.
In this example, the same polyethertriamine described in Example No. 1 was used. The disodium cocoamphodiproprionate used was Amphoterge® K-2 obtained from Arxada AG. The methylglycinediacetic acid used was Trilon® M obtained from BASF Corporation.
In tables 9 and 10, antimicrobial efficacy was evaluated according to the EU Standard EN1276 method against Pseudomonas aeruginosa (ATCC 15442) for a contact time of 5 minutes in dirty condition. Test compounds were diluted in hardwater with a total hardness of 375 ppm as CaCo3 pursuant to the Organization for Economic Co-operation and Development (OECD) and used within 2 hours of preparation. The test inoculum was adjusted to the concentration of 1.5-5×10^8 colony forming units (CFU) in Tryptone Sodium Chloride buffer (TSC, 1.0 g tryptone, 8.5 g NaCl, 1 L H2O). For the challenge test, 1 ml of the test inocula was mixed with 1 ml of Bovine Serum Albumin (final concentration 3 g/L) and held for 2 minutes before it was exposed to 8 mL of test compound. The test suspension was then mixed and held for the contact time of 5 minutes at 20±1 °C. At the end of the exposure time, 1 ml of the test mixture was transferred to a tube containing 9 ml neutralizing solution and held for 5 minutes before it was serially diluted and plated onto TSA plates. The plates were incubated at 37 °C for 48 hours before the numbers of CFU per ml in the test suspensions relative to the controls were calculated. Test and control procedures were performed in duplicate and carried out in parallel with the neutralization validation controls, as described in the standard.

SMILES	# Fails out of 10 (Staphylococcus aureus)	# Fails out of 10 (Pseudomonas aeruginosa [1])	Average Log Kill (Klebsiella pneumoniae; 0 ppm PEA)	Delta Log Kill (Klebsiella pneumoniae; 250 ppm PEA vs 0)	Average Log Kill (Klebsiella pneumoniae; 250 ppm PEA)	Average Log Kill (Pseudomonas aeruginosa [2]; 0 ppm PEA)	Delta Log Kill (Pseudomonas aeruginosa [2]; 100 ppm PEA vs 0)	Average Log Kill (Pseudomonas aeruginosa [2]; 100 ppm PEA)	Delta Log Kill (Pseudomonas aeruginosa [2]; 250 ppm PEA vs 0)	Average Log Kill (Pseudomonas aeruginosa [2]; 250 ppm PEA)	Log Reduction ([3]; 0.50% para-chloro-meta-xylenol, 1:5 dilution (1000 ppm))	Log Reduction ([3]; 1.00% para-chloro-meta-xylenol, 1:5 dilution (2000 ppm))	performance in presence of the adjuvants ([3]; Example No. 3)
N=C(NCCCCCCNC(=N)NC(=N)Nc1ccc(Cl)cc1)NC(=N)Nc1ccc(Cl)cc1 [Chlorohexidine]	10 out of 10	10 out of 10	–	–	–	–	–	–	–	–	–	–	–
CCCCCCCCCC[N+](C)(C)CCCCCCCCCC.[Cl-] [didecyl dimethyl ammonium chloride]	1 out of 10	9 out of 10	0.46 log	1.38 log	1.83 log	1.58 log	0.92 log	2.50 log	0.29 log	1.88 log	–	–	–
Cc1cc(O)cc(C)c1Cl [Para-chloro-meta-xylenol, 4-chloro-3,5-dimethylphenol]	–	–	–	–	–	–	–	–	–	–	0.83 log	2.56 log	dramatically improved the performance
